# Experimental data: ChEMBL document CHEMBL1138773, “Design and synthesis of aryl diphenolic azoles as potent and selective estrogen receptor-beta ligands” (J Med Chem, 2004)
# What was measured:
# [1] = molecular target: T1, Estrogen receptor (Homo sapiens, UniProt P03372)
# T1 sequence (P03372 whole entry): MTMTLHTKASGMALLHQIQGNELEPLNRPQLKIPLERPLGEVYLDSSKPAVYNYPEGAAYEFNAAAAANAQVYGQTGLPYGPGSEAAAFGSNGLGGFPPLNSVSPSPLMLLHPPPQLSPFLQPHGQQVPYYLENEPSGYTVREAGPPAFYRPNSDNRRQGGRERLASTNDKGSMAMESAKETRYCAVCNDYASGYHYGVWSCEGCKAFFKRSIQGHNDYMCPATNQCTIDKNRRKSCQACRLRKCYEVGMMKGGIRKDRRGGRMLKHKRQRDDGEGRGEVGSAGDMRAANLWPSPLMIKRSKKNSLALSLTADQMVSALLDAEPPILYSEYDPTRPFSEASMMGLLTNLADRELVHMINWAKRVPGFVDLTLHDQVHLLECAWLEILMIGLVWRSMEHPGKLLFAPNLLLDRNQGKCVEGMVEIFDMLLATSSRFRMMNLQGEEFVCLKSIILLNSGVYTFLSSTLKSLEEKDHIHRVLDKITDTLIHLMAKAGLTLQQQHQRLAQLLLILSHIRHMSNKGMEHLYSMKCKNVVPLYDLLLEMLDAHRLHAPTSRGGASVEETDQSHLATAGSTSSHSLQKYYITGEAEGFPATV
# [2] = molecular target: Estrogen receptor beta (Homo sapiens, UniProt Q92731)
# [3] = species: Mus musculus; conditions: dose 50 mg/kg
# Description: Weight of mouse uterine when treated with compound at 50 mg/kg dose was determined
# [4] = molecular target: Estrogen receptor beta (Rattus norvegicus, UniProt Q62986)
# [5] = molecular target: T2, Estrogen receptor (Mus musculus, UniProt P19785)
# T2 sequence (P19785 whole entry): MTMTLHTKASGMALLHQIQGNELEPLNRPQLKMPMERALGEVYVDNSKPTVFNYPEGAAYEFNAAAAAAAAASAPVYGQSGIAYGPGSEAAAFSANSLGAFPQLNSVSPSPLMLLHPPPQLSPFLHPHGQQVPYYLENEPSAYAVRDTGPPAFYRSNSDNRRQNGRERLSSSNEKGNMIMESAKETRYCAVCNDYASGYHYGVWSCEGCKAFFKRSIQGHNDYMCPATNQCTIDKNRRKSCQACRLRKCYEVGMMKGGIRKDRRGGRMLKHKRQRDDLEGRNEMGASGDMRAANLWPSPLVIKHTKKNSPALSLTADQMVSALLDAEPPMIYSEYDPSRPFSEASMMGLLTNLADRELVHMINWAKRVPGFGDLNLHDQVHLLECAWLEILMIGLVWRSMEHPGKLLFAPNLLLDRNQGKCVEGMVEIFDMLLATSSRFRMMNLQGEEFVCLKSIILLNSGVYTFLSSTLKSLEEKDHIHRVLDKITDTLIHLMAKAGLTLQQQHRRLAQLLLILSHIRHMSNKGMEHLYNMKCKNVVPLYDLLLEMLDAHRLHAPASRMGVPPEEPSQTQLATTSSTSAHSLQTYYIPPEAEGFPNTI
# [6] = molecular target: Estrogen receptor beta (Mus musculus, UniProt O08537)
# [7] = molecular target: T3, Estrogen receptor (Rattus norvegicus, UniProt P06211)
# T3 sequence (P06211 whole entry): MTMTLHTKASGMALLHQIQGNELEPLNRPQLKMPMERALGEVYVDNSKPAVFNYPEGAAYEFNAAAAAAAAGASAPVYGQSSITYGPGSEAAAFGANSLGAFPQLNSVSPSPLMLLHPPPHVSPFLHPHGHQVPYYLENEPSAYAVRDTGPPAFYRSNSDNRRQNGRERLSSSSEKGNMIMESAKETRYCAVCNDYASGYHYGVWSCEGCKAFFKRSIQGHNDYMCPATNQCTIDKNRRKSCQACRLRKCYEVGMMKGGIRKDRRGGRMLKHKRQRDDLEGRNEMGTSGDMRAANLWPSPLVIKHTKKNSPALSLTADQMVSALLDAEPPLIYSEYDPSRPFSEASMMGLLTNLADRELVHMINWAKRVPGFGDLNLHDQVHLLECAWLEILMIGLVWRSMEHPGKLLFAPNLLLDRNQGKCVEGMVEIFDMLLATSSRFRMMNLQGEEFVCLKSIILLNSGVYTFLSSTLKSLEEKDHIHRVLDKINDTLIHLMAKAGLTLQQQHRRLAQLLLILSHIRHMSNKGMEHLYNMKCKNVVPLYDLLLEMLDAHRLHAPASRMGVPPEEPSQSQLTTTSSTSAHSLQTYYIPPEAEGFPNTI
# [8] = species: Rattus norvegicus; assay: Effect of combination of compound and PPT on rat vasomotor instability in terms of tail skin temperature change 15 min after naloxone injection; format: functional
# [9] = test system: Rattus norvegicus; assay: Trabecular bone mineral density in ovariectomized rat when treated with compound at 10 mg/kg dose; format: functional, Trabecula
# [10] = test system: Rattus norvegicus; assay: Total bone mineral density in ovariectomized rat when treated with compound at 10 mg/kg dose; format: functional
# [11] = molecular target: Estrogen receptor beta (Rattus norvegicus) (UniProt Q62986); conditions: Prostate gland
# [12] = molecular target: Estrogen receptor beta (Rattus norvegicus) (UniProt Q62986); conditions: Prostate gland; remark: listed apart in the source
# Sequence of Estrogen receptor beta (Homo sapiens, UniProt Q92731) (Q92731 whole entry): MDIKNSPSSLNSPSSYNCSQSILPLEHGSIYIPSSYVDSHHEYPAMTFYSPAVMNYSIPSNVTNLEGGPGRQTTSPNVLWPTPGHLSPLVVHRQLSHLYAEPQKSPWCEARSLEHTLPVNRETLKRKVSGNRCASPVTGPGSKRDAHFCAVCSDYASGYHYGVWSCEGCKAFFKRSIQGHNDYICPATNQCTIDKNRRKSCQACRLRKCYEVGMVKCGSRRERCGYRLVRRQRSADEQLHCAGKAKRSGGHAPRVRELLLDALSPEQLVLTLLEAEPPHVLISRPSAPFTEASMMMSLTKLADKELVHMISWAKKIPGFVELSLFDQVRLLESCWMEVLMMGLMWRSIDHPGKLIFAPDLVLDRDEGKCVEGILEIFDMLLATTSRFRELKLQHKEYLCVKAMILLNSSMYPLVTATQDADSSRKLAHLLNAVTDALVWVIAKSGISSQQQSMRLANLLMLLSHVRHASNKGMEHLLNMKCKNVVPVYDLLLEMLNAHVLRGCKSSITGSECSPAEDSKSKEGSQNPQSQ
# Sequence of Estrogen receptor beta (Rattus norvegicus) (Q62986 whole entry): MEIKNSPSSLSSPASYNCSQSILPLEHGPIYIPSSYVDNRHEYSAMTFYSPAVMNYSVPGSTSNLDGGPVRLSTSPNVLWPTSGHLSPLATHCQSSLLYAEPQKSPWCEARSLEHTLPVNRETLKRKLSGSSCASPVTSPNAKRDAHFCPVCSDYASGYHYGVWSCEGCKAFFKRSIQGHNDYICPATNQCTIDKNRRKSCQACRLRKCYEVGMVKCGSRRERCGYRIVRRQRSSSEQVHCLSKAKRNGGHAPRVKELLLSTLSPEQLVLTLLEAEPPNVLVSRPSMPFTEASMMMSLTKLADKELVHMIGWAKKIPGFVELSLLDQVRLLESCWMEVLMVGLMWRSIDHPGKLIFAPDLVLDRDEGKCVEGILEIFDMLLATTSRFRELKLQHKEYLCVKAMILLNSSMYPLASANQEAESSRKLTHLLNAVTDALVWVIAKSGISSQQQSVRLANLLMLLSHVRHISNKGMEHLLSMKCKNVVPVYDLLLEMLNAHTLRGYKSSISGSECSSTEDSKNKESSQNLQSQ
# Sequence of Estrogen receptor beta (Rattus norvegicus, UniProt Q62986) (Q62986 whole entry): as above
# Sequence of Estrogen receptor beta (Mus musculus, UniProt O08537) (O08537 whole entry): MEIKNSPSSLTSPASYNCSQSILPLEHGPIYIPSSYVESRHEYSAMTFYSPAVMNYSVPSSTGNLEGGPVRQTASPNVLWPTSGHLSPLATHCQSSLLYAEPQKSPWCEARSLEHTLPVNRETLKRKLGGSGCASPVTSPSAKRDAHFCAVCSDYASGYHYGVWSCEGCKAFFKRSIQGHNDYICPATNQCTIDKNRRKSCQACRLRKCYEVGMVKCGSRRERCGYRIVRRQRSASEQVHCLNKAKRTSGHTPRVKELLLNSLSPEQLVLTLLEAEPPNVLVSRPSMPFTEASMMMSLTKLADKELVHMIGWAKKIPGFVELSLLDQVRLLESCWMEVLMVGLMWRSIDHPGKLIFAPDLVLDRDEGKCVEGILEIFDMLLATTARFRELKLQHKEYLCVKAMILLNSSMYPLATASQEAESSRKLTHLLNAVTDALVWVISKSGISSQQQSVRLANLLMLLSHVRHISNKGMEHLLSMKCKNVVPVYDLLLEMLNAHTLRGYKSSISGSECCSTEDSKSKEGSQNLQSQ
SMILES,IC50 [1] [nM],IC50 [2] [nM],also measured
Oc1ccc2nc(-c3cccc(O)c3O)oc2c1,2350,–,–
C=Cc1cc(O)cc2nc(-c3ccc(O)cc3)oc12,447,–,–
N#Cc1cc(O)ccc1-c1noc2cc(O)ccc12,264,12,–
Oc1cc(/C=C\F)c2oc(-c3ccc(O)c(F)c3)nc2c1,376,3.2,Weight [3]: 9.8 mg
Oc1ccc2c(-c3ccccc3O)noc2c1,3000,–,–
N#CCc1cc(O)ccc1-c1noc2cc(O)ccc12,717,96,–
CCCCOc1cc(-c2nc3ccc(O)cc3o2)ccc1O,6240,3660,–
Oc1ccc(-c2nc3cc(O)cc(/C=C\Br)c3o2)cc1,4650,45,–
C=Cc1cc(O)cc2nc(-c3ccc(O)cc3F)oc12,–,–,Weight [3]: 10.3 mg
Oc1ccc(-c2nc3cc(O)cc(/C=C\Br)c3o2)c(F)c1,196,16,–
Oc1ccc(-c2nc3cc(O)ccc3o2)cc1,–,–,IC50 [4]: 2.2 nM; IC50 [5]: 1630 nM; IC50 [6]: 9.9 nM
Oc1ccc2nc(-c3ccc(O)c(F)c3)oc2c1,8430,–,–
C=Cc1cc(O)cc2nc(-c3cc(F)c(O)cc3F)oc12,4040,66,–
Oc1ccc(-c2noc3cc(O)ccc23)cc1,–,–,IC50 [4]: 36 nM; IC50 [5]: 1090 nM; IC50 [7]: 716 nM; IC50 [6]: 13 nM
COc1c(Br)c(O)c(Br)c2nc(-c3ccc(O)c(F)c3)oc12,559,64,–
Oc1ccc(-c2nc3ccc(O)cc3o2)cc1,–,–,IC50 [4]: 20 nM; IC50 [5]: 1340 nM; IC50 [7]: 821 nM; IC50 [6]: 9.5 nM
O=Cc1cc(O)cc2nc(-c3ccc(O)cc3)oc12,–,–,IC50 [4]: 29 nM; IC50 [7]: 2250 nM; IC50 [6]: 16.5 nM
N#Cc1cc(O)cc2nc(-c3ccc(O)cc3F)oc12,138,2.4,–
Oc1ccc(-c2nc3cc(O)cc(Br)c3o2)cc1,–,–,Activity [8]: 1.9; IC50 [4]: 1.2 nM; IC50 [5]: 132 nM; Density [9]: 287.56 mg/cm3; IC50 [7]: 132 nM; Density [10]: 525.51 mg/cm3; IC50 [6]: 1.7 nM

SMILES,IC50 [1] [nM],IC50 [2] [nM],also measured
O=C(O)c1cc(O)cc2nc(-c3ccc(O)cc3)oc12,> 5000,> 5000,–
COC(=O)c1cc(O)cc2nc(-c3ccc(O)cc3)oc12,> 5000,356,–
Cc1cc(O)c2cccc(-c3nc4ccc(O)cc4o3)c2c1,163,6,–
C=Cc1cc(O)cc2nc(-c3ccc(O)cc3C)oc12,1120,27,–
O/N=C/c1cc(O)ccc1-c1noc2cc(O)ccc12,2390,383,–
Oc1cc(Br)c2oc(-c3ccc(O)c(F)c3)nc2c1,–,–,IC50 [4]: 2 nM; IC50 [5]: 199 nM; Density [9]: 312.34 mg/cm3; IC50 [7]: 171 nM; Weight [11]: 119 mg; Density [10]: 501.4 mg/cm3; IC50 [6]: 2.7 nM
C=CCc1cc(O)cc2nc(-c3ccc(O)cc3)oc12,727,13,Weight [3]: 10 mg
C=Cc1cc(O)cc2nc(-c3c(F)cc(O)cc3F)oc12,249,2.2,Weight [3]: 10 mg
CC(C)C(=O)Nc1ccc([N+](=O)[O-])c(C(F)(F)F)c1,–,–,Weight [12]: 15.2 mg
C/C=C\c1cc(O)cc2nc(-c3ccc(O)cc3)oc12,775,1.42,–
C/C=C\c1cc(O)cc2nc(-c3ccc(O)cc3F)oc12,539,23,–
Oc1ccc(-c2noc3ccc(O)cc23)c(O)c1,4070,138,–
Oc1ccc2c(-c3nc4cc(F)c(O)cc4o3)cccc2c1,434,46,–
C=CCc1cc(O)cc2nc(-c3ccc(O)cc3F)oc12,98,3,–
Oc1ccc(-c2noc3ccccc23)c(O)c1,6100,718,–
COc1cc(O)c(Br)c2nc(-c3ccc(O)c(F)c3)oc12,2670,52,–
C=Cc1cc(O)cc2nc(-c3ccc(O)c(F)c3)oc12 [PRINABEREL],–,–,IC50 [4]: 3.14 nM; IC50 [5]: 746 nM; IC50 [7]: 618 nM; Weight [11]: 132 mg; IC50 [6]: 3.7 nM
N#Cc1cc(O)cc2nc(-c3ccc(O)cc3)oc12,–,–,Activity [8]: 2.7; IC50 [4]: 4 nM; IC50 [7]: 362 nM; IC50 [6]: 4.3 nM
